Data from ChEMBL document CHEMBL4354805, “Discovery of MK-8719, a Potent O-GlcNAcase Inhibitor as a Potential Treatment for Tauopathies” (J Med Chem, 2019).

What was measured:
MDR1 = assay: Apparent permeability in pig LLC-PK1 cells transfected with MDR1; type: ADME, cell-based, Sus scrofa
Protein O-GlcNAcase = molecular target: T1, Protein O-GlcNAcase (Rattus norvegicus, UniProt Q8VIJ5); assay: Inhibition of OGA in rat PC12 cells assessed as OGlcNAcylated protein level incubated for 24 hrs by ELISA; type: cell-based
T1 sequence (Q8VIJ5 whole entry): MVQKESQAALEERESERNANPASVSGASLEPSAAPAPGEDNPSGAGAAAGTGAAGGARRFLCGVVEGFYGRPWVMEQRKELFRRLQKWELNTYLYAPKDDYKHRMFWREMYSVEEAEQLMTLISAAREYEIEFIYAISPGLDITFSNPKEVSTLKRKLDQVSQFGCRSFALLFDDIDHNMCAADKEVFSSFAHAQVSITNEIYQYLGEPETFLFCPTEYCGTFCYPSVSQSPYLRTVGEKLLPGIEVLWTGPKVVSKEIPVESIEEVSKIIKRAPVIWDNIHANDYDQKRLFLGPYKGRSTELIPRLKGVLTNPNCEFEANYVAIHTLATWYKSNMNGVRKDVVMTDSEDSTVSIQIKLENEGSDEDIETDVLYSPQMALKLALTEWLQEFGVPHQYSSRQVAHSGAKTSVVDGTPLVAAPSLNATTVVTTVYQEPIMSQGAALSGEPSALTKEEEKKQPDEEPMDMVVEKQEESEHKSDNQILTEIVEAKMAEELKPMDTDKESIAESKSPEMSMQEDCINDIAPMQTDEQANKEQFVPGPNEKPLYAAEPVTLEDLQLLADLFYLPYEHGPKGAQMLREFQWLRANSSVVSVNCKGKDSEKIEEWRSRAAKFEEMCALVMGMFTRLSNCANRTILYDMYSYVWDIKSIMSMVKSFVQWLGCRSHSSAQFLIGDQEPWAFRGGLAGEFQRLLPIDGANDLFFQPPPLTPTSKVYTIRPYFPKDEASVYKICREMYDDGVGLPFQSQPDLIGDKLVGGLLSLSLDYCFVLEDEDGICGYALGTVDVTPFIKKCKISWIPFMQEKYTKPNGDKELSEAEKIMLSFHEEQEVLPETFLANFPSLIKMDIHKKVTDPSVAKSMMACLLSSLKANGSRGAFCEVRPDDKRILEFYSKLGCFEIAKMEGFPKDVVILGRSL

[1] = AUCN in Wistar Han rat at 10 mg/kg, po; type: ADME, organism-based; conditions: in vivo
[2] = Clearance in Wistar Han rat at 2 mg/kg, iv; type: ADME, organism-based; conditions: in vivo
[3] = Half life in Wistar Han rat at 2 mg/kg, iv; type: ADME, organism-based; conditions: in vivo
Rattus norvegicus [4] = assay: Elevation of O-protein in rat brain at 3 mg/kg, po measured after 8 hrs relative to control; type: functional
[5] = Drug uptake in rat brain at 3 mg/kg, po measured after 8 hrs; type: ADME, organism-based; conditions: in vivo
[6] = Ratio of drug uptake in rat brain to plasma at 3 mg/kg, po measured after 8 hrs; type: ADME, organism-based; conditions: read-out: BPR
[7] = Ratio of drug uptake in rat brain to plasma at 3 mg/kg, po measured after 24 hrs; type: ADME, organism-based; conditions: read-out: BPR
[8] = Oral bioavailability in Beagle dog at 3 mg/kg; type: ADME, organism-based, Canis lupus familiaris; conditions: in vivo
[9] = Fraction unbound in Beagle dog plasma at 1 uM by equilibrium dialysis; type: ADME, cell-free, Canis lupus familiaris
[10] = Clearance in Beagle dog at 1 mg/kg, iv; type: ADME, organism-based, Canis lupus familiaris; conditions: in vivo
[11] = Volume of distribution at steady state in Beagle dog at 1 mg/kg, iv or 3 mg/kg, po; type: ADME, organism-based, Canis lupus familiaris; conditions: in vivo, read-out: Vdss
[12] = Fraction unbound in rhesus monkey plasma at 1 uM by equilibrium dialysis; type: ADME, cell-free, Macaca mulatta
[13] = Half life in rhesus monkey at 1 mg/kg, iv; type: ADME, organism-based, Macaca mulatta; conditions: in vivo
[14] = Volume of distribution at steady state in rhesus monkey at 1 mg/kg, iv or 3 mg/kg, po; type: ADME, organism-based, Macaca mulatta; conditions: in vivo, read-out: Vdss
[15] = Oral bioavailability in rhesus monkey at 3 mg/kg; type: ADME, organism-based, Macaca mulatta; conditions: in vivo
[16] = Protein binding in dog plasma; type: ADME, cell-free, Canis lupus familiaris; conditions: read-out: PPB
[17] = Protein binding in human plasma; type: ADME, cell-free; conditions: read-out: PPB
[18] = Ratio of drug level in human blood to plasma; type: ADME, cell-free; conditions: whole blood
[19] = Stability in rat hepatocytes assessed as parent compound remaining at 10 uM incubated for 120 mins; type: ADME, cell-based, Hepatocyte; conditions: read-out: Stability
[20] = Stability in dog hepatocytes assessed as parent compound remaining at 10 uM incubated for 120 mins; type: ADME, cell-based, Canis lupus familiaris, Hepatocyte; conditions: read-out: Stability
[21] = Stability in human hepatocytes assessed as parent compound remaining at 10 uM incubated for 120 mins; type: ADME, cell-based, Hepatocyte; conditions: read-out: Stability
Nav1.5 = Nav1.5 (Homo sapiens, UniProt Q14524); assay: Inhibition of Nav1.5 (unknown origin) at 30 uM
Chain of Nav1.5 (Q14524 whole entry): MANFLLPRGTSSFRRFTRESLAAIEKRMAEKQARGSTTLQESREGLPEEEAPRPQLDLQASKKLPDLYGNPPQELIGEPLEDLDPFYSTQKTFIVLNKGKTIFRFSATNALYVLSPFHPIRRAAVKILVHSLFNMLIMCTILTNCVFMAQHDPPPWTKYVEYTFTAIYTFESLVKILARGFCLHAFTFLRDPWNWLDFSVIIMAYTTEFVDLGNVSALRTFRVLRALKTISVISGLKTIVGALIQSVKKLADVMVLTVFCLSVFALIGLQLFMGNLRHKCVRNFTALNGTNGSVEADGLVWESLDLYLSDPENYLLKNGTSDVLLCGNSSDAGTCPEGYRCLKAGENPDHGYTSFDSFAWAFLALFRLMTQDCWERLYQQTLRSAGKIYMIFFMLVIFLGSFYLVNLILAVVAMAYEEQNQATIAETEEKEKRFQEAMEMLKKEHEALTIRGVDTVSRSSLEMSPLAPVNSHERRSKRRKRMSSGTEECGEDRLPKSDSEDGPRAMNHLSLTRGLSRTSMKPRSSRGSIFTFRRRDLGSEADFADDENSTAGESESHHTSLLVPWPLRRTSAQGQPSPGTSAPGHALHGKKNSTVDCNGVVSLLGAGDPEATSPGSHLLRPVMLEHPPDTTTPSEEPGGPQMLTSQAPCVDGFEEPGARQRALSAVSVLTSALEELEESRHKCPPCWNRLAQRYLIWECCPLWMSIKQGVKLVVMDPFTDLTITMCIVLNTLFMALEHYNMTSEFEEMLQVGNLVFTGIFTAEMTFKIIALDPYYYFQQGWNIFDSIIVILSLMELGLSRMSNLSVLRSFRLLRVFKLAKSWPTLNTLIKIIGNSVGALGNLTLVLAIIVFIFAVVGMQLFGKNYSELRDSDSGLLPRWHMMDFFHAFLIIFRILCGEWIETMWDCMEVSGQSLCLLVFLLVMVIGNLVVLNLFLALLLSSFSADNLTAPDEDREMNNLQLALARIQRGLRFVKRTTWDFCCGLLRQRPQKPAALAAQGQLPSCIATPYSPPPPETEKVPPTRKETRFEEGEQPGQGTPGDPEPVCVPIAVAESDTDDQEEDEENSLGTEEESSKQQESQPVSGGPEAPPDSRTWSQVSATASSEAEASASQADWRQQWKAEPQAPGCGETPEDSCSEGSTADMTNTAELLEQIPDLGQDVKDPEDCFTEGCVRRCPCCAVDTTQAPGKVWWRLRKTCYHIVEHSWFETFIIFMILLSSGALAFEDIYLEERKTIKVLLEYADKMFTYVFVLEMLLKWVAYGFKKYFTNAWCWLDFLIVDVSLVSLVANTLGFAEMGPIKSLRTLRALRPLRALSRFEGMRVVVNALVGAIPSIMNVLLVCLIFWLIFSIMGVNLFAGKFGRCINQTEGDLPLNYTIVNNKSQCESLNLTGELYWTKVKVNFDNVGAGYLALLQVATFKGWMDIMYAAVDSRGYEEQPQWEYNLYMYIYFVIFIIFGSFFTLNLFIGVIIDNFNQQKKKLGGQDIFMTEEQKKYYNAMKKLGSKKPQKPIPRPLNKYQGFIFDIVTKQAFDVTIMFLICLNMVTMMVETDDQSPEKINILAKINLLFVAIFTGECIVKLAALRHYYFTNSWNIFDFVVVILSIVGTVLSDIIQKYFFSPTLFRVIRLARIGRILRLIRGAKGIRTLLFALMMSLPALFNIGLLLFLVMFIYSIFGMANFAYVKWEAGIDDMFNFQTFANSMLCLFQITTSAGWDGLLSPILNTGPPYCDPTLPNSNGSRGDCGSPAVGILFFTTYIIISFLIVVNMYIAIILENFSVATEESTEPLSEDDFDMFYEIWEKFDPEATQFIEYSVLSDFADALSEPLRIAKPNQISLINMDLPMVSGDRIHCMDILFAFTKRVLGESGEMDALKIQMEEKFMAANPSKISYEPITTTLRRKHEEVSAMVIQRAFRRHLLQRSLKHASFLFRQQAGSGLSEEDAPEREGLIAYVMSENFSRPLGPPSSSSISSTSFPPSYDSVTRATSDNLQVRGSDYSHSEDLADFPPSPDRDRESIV

IKs (KCNQ1) = molecular target: T2, IKs (KCNQ1) (Homo sapiens, UniProt P51787); assay: Inhibition of IKs (unknown origin) at 30 uM
T2 sequence (P51787 whole entry): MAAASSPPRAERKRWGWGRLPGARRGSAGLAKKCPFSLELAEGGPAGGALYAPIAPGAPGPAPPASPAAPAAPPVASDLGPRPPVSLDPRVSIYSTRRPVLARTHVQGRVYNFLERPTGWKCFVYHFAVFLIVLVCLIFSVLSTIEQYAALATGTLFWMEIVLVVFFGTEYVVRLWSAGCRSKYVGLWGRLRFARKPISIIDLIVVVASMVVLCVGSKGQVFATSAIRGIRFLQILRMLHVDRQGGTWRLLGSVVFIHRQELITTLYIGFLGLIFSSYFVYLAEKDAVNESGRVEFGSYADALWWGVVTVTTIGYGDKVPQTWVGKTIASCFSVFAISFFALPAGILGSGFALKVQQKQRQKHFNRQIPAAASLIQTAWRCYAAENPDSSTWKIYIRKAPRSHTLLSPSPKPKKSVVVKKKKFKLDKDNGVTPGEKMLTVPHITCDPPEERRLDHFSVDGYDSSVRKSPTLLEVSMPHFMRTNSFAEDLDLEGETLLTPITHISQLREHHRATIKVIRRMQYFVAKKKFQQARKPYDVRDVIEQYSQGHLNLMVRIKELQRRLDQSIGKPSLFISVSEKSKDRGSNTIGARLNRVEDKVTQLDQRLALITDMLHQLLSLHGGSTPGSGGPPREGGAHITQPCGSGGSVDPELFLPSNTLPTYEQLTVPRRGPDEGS

Rattus norvegicus [22] = assay: Hemodynamic activity in telemetered rat at 380 mg/kg, po; type: ADME, organism-based; conditions: in vivo
[23] = Cmax in telemetered rat at 380 mg/kg, po; type: ADME, organism-based; parameters: dose 380 mg/kg, route oral; conditions: in vivo
Canis familiaris = assay: Hemodynamic activity in telemetered dog assessed as change in EKG parameter at 300 mg/kg, po; type: ADME, organism-based, Canis lupus familiaris; conditions: in vivo
[24] = Toxicity in rat assessed as change in physical signs at 1000 mg/kg, po administered for 7 days and measured on day 8; type: organism-based; conditions: in vivo, 168 h
[25] = Toxicity in rat assessed as change in histomorphology at 1000 mg/kg, po administered for 7 days and measured on day 8; type: organism-based; conditions: in vivo, 168 h
[26] = AUC (0 to 24 hrs) in rat assessed as change in histomorphology at 1000 mg/kg, po administered for 7 days and measured on day 8; type: ADME, organism-based; parameters: time < 24 hr, dose 1000 mg/kg, route oral; conditions: in vivo

CCNC1=N[C@@H]2[C@@H](O)[C@H](O)[C@@H](C(F)F)O[C@@H]2S1
Papp (MDR1): 6.4 ×10⁻⁶ cm/s
EC50 (Protein O-GlcNAcase): 52.7 nM
AUC/dose [1]: 1.4 µM·kg·h/mg
clearance [2]: 36.7 mL/min/kg
half-life [3]: 1.9 h
fold change (FC) (Rattus norvegicus [4]): 2.06
Drug uptake [5]: 0.219 nmol/g
Kp at 8 h [6]: 1.84
Kp at 24 h [7]: ≥ 20.5
bioavailability [8]: 90%
fraction unbound at 1 µM [9]: > 0.99
clearance [10]: 11.7 mL/min/kg
Vd [11]: 2.4 L/kg
fraction unbound at 1 µM [12]: > 0.99
half-life [13]: 1.4 h
Vd [14]: 3.1 L/kg
bioavailability [15]: 9%
fraction unbound [16]: > 0.95
fraction unbound [17]: > 0.95
blood plasma ratio [18]: 0.9 to 1.1
remaining at 2 h, 10 µM [19]: 96%
remaining at 2 h, 10 µM [20]: 91%
remaining at 2 h, 10 µM [21]: 90%
inhibition at 30 µM (Nav1.5): < 50%
inhibition at 30 µM (IKs (KCNQ1)): < 50%
Activity (Rattus norvegicus [22]): Non-Toxic
Cmax [23]: 110 µM
Activity (Canis familiaris): Non-Toxic
Activity [24]: Non-Toxic
Activity [25]: Non-Toxic
AUC at 24 h [26]: 1340 µM·h
